Experimental data: patent US10709705B2, “Aminopyrimidines as ALK inhibitors” (THE REGENTS OF THE UNIVERSITY OF MICHIGAN, priority 2016, dated 2020)

Tests used:
[1] = target: T1, LTK (Homo sapiens, UniProt P29376); test: KINOMEscan kinase panel, LTK; assay type: binding
T1 construct: purchased LeadHunter Discovery Services (currently DiscoverX Corporation), KINOMEscan screening service
From the text: (§1) Cpd. No. 5 was screened for its activity against a panel of human kinases using the KINOMEscan™ screening platform from LeadHunter Discovery Services (currently DiscoverX Corporation (Fremont, Calif. 94538, United States). See Table 7.

[2] = Pharmacokinetics in beagle dogs; assay type: in vivo; conditions: Table 9 (beagle dogs)
Procedure: (§2) Routine pharmacokinetics studies were performed for Cpd. No. 5 in SD rats and beagle dogs.

[3] = target: T2, IGF1R (Homo sapiens, UniProt P08069); test: KINOMEscan kinase panel, IGF1R; assay type: binding
T2 construct: purchased LeadHunter Discovery Services (currently DiscoverX Corporation), KINOMEscan screening service
From the text: as §1

[4] = system: Human lymphoma cells, KARPAS 299 xenograft; test: KARPAS 299 xenograft tumor growth in SCID mice; assay type: in vivo; conditions: given orally, once daily for 3 weeks, FIG. 1
Procedure: Cpd. Nos. 5 and 6 were dissolved in a solution of 98% PEG200: 2% TPGS (Sigma).
Human lymphoma cells, KARPAS 299 were maintained at 37° C., 95% air, 5% carbon dioxide in RPMI 1640 medium supplemented with 10% Fetal Bovine Serum, 100 units/ml of penicillin and 100 units/ml of streptomycin (GIBCO™, Invitrogen Corp.) and passaged twice weekly.
Tumor cells for xenografts were washed twice in PBS, and re-suspended in an ice cold mixture of 1:1 PBS and Matrigel (BD Biosciences, Invitrogen Corp.) for a final Matrigel protein concentration of 5 mg/ml. Cells at 5×10^6 cells in 0.1 ml were injected subcutaneously (s.c.) into the flank region of each mouse. All tumors were inoculated into SCID mice (strain:236 C.B-17 SCID, Charles River).
The size of tumors growing in the mice was measured in two dimensions using calipers. Tumor volume (mm^3)=(AxB^2)/2 where A and B are the tumor length and width (in mm), respectively. During treatment, tumor volume and body weight were measured three times a week. After the treatment was stopped, tumor volume and body weight was measured at least once a week.
Tumors were not allowed to exceed 10% of the animal's total body weight. If an animal had two or more tumors the total weight of all tumors were not allowed to exceed 10% of the animal's total body weight. […]

[5] = Pharmacokinetics in SD rats; assay type: in vivo; conditions: Table 8 (SD rats); for AUC0-t (ng · h/mL) PO / AUC0-∞ (ng · h/mL) PO / Cmax(ng/mL) PO / Tmax (h) PO / t1/2 (h) PO: PO 10 mg/kg, 10 mg/kg
Procedure: as §2

[6] = target: T3, FAK (Homo sapiens, UniProt Q05397); test: KINOMEscan kinase panel, FAK; assay type: binding
T3 construct: purchased LeadHunter Discovery Services (currently DiscoverX Corporation), KINOMEscan screening service
From the text: as §1

[7] = target: T4, ROS1 (Homo sapiens, UniProt P08922); test: KINOMEscan kinase panel, ROS1; assay type: binding
T4 construct: purchased LeadHunter Discovery Services (currently DiscoverX Corporation), KINOMEscan screening service
From the text: as §1

[8] = system: Kappas-299 cells (NPM-ALK); test: Cell growth inhibition assay (WST-8), Kappas-299; assay type: cell-based; conditions: read-out: Kappas-299 (nM) (NPM-ALK), 50% of cell growth inhibition (IC50), WST-8, versus DMSO control
Procedure: H3122 and Kappas-299 cells were purchased from American Type Culture Collection (Manassas, Va., USA) and were used within 2 months after initiating from original stocks. All cell lines were cultured as recommended. For cell growth inhibition assay, cells were treated with different concentrations of the tested compounds, diluted from stock to culture media containing a 0.2% DMSO as the final concentration. Cell viability was determined using the WST-8 cell proliferation assay kit (Dojindo Molecular Technologies) according to manufacturer's instructions. Three independent experiments in triplicates were performed.

[9] = Sprague-Dawley, rat, in vivo, iv, 1 mg/kg, IV 1 mg/kg
[10] = listed as Cpd. No. 5 (solution)
[11] = listed as Cpd. No. 5 (suspension)

T3 sequence (Q05397 whole entry): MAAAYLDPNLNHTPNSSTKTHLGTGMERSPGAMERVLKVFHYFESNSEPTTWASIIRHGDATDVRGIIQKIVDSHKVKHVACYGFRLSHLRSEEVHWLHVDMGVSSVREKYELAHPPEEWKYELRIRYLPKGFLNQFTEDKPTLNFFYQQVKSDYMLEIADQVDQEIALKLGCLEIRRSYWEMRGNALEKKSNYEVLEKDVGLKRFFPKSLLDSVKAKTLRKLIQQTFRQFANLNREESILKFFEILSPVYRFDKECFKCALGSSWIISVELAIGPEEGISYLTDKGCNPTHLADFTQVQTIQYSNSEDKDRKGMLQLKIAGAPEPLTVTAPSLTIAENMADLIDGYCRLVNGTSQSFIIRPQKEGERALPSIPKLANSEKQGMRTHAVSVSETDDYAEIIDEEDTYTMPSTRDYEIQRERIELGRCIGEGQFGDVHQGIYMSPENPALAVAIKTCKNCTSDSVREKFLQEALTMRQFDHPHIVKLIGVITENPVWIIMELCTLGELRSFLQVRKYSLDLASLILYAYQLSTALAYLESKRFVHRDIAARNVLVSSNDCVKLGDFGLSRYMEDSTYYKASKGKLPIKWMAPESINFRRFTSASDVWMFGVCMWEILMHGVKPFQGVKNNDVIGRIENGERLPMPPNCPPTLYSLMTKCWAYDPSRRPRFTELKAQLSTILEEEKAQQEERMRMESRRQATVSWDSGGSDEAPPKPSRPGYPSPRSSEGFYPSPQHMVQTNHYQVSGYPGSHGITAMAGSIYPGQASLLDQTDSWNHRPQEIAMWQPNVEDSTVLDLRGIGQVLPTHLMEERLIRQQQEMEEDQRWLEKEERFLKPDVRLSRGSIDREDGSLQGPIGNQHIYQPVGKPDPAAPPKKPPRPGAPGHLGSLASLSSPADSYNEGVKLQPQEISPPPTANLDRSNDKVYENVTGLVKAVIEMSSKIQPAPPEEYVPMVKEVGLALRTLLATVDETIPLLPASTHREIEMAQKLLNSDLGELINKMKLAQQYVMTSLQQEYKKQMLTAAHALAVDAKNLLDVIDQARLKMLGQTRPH
T4 sequence (P08922 28-2347): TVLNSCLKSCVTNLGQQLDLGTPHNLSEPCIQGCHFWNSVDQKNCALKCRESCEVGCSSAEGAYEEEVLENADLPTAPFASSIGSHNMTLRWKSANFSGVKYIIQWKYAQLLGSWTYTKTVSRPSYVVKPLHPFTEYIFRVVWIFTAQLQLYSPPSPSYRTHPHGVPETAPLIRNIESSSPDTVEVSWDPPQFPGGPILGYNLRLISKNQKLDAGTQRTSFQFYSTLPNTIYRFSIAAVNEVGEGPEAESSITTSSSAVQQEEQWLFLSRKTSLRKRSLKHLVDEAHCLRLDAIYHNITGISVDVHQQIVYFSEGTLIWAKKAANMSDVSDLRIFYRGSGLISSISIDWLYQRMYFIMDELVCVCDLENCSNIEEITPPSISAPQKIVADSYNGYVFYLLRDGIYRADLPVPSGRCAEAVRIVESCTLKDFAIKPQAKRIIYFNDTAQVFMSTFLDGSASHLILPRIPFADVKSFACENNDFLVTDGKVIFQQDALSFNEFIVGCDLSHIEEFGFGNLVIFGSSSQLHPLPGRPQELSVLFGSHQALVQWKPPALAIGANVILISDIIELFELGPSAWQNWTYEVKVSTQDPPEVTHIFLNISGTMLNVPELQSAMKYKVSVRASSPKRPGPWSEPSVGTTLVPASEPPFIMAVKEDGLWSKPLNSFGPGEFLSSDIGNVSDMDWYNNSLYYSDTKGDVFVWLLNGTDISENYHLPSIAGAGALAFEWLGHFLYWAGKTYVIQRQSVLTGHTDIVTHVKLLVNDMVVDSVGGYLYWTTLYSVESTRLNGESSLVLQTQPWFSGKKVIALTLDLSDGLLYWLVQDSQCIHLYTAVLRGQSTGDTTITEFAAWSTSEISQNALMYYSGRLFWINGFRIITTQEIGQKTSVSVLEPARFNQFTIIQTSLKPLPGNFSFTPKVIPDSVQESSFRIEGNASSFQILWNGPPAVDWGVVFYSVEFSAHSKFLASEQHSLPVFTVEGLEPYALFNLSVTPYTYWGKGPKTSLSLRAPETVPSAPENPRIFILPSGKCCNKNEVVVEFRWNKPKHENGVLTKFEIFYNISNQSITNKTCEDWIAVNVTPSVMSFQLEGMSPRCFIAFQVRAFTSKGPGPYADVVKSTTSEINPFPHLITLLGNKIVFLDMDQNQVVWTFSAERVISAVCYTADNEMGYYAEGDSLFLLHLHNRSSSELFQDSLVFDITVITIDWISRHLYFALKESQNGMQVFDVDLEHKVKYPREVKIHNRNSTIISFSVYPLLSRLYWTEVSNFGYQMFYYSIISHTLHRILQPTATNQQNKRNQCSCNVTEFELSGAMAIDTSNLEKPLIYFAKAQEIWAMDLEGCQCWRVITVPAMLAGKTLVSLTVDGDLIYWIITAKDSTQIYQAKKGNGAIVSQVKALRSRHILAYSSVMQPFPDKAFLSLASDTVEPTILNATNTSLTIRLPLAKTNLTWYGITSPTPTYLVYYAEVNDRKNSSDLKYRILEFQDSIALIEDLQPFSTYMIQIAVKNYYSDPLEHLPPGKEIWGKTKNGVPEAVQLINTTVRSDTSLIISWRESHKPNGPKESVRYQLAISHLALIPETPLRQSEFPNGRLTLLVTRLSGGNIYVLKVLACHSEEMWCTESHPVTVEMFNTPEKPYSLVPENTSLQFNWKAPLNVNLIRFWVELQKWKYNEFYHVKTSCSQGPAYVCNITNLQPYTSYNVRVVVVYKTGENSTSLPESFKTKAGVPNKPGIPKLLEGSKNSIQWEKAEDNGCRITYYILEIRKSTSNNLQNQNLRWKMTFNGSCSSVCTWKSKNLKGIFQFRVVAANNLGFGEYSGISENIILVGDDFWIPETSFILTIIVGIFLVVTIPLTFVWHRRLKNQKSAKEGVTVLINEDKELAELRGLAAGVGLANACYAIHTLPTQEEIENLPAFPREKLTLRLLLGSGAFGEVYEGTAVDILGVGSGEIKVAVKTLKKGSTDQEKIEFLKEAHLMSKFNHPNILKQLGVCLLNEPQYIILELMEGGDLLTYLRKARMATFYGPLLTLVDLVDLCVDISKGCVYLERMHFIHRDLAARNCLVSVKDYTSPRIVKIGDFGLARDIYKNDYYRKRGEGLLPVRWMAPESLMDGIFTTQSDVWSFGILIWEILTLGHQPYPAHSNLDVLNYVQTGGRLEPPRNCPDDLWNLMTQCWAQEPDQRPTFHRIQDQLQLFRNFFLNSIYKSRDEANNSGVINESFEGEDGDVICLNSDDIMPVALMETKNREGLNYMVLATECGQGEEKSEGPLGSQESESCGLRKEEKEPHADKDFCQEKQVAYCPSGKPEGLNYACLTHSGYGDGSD
T1 sequence (P29376 17-864): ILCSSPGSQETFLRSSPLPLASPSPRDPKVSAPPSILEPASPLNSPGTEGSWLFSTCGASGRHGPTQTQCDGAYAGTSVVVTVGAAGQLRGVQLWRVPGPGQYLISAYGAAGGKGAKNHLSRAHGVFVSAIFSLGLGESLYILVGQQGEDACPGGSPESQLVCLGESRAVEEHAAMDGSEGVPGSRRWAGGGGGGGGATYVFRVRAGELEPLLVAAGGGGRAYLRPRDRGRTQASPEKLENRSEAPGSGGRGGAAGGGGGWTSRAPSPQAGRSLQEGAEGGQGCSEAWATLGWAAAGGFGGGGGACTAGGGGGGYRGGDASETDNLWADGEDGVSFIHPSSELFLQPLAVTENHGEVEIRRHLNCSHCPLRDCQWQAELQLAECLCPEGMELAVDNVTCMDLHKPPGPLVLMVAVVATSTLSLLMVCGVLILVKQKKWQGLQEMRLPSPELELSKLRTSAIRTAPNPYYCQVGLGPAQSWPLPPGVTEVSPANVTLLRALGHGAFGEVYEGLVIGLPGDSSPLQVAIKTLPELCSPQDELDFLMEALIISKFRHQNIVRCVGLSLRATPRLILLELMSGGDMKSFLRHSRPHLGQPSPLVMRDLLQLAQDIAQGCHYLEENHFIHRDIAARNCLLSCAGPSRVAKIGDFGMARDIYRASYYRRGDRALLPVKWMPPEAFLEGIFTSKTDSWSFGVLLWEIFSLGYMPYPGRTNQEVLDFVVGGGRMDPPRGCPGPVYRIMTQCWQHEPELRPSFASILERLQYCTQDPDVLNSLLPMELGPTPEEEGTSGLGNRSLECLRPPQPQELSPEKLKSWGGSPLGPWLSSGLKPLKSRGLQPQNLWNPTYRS

Cc1cc(Nc2ncc(Cl)c(Nc3ccccc3S(=O)(=O)C(C)C)n2)c(OC(C)C)cc1C1=CCN(C2CCOCC2)CC1 [Cpd. No. 5, 5-chloro-N2-(2-isopropoxy-5-methyl-4-(1-(tetrahydro-2H-pyran-4-yl)-1,2,3,6-tetrahydropyridin-4-yl)phenyl)-N4-(2-(isopropylsulfonyl)phenyl)pyrimidine-2,4-diamine]
Kd [1]: 0.62 nM | F(AUC0-t) ([2]; PO 5 mg/kg vs IV 1 mg/kg): 33.3% | MRT inf ([2]; dog, in vivo, IV 1 mg/kg): 22.1 h | AUC(0-t) ([2]; dog, in vivo, IV 1 mg/kg, read-out: AUC0-t (ng · h/mL) IV): 1820 ng·h/mL | AUC(0-inf) ([2]; dog, in vivo, IV 1 mg/kg, read-out: AUC0-∞ (ng · h/mL) IV): 2140 ng·h/mL | clearance ([2]; dog, in vivo, IV 1 mg/kg, read-out: CL (iv) (converted)): 8.1 mL/min/kg | Cmax ([2]; dog, in vivo, IV 1 mg/kg, read-out: Cmax(ng/mL) IV): 314 ng/mL | Tmax ([2]; dog, in vivo, IV 1 mg/kg, read-out: Tmax (h) IV): 0.083 h | Vd ([2]; dog, in vivo, IV 1 mg/kg, read-out: Vss (iv)): 10.8 L/kg | half-life ([2]; dog, in vivo, IV 1 mg/kg, read-out: t1/2 (h) IV (converted)): 19.7 h | AUC(0-t) ([2]; dog, in vivo, PO 5 mg/kg, read-out: AUC0-t (ng · h/mL) PO): 2930 ng·h/mL | AUC(0-inf) ([2]; dog, in vivo, PO 5 mg/kg, read-out: AUC0-∞ (ng · h/mL) PO): 3710 ng·h/mL | Cmax ([2]; dog, in vivo, PO 5 mg/kg, read-out: Cmax(ng/mL) PO): 239 ng/mL | Tmax ([2]; dog, in vivo, PO 5 mg/kg, read-out: Tmax (h) PO): 1.67 h | half-life ([2]; dog, in vivo, PO 5 mg/kg, read-out: t1/2 (h) PO (converted)): 20 h | Kd [3]: 9 nM | tumor growth in the KARPAS 299 xenograph model [4]: inhibit tumor growth | Cmax [5, 9]: 234 ng/mL | Tmax [5, 9]: 4.98 min | AUC(0-t) ([5]; Sprague-Dawley, rat, in vivo, iv, 1 mg/kg, IV 1 mg/kg, read-out: AUC0-t (ng · h/mL) IV): 506 ng·h/mL | AUC(0-inf) ([5]; Sprague-Dawley, rat, in vivo, iv, 1 mg/kg, IV 1 mg/kg, read-out: AUC0-∞ (ng · h/mL) IV): 576 ng·h/mL | half-life ([5]; Sprague-Dawley, rat, in vivo, iv, 1 mg/kg, IV 1 mg/kg, read-out: t1/2 (h) IV (converted)): 3.94 h | MRT inf ([5]; Sprague-Dawley, rat, in vivo, IV 1 mg/kg): 4.54 h | clearance ([5]; Sprague-Dawley, rat, in vivo, IV 1 mg/kg, read-out: CL (iv) (converted)): 29.2 mL/min/kg | Vd ([5]; Sprague-Dawley, rat, in vivo, IV 1 mg/kg, read-out: Vss (iv)): 7.97 L/kg | F(AUC0-t) ([5]; PO 10 mg/kg vs IV 1 mg/kg, solution): 31.1% | AUC0-t (ng · h/mL) PO [5, 10]: 1759 ng·h/mL | AUC0-∞ (ng · h/mL) PO [5, 10]: 1788 ng·h/mL | Cmax(ng/mL) PO [5, 10]: 153 ng/mL | Tmax (h) PO [5, 10]: 2.67 h | t1/2 (h) PO [5, 10]: 3.93 h | AUC0-t (ng · h/mL) PO [5, 11]: 719 ng·h/mL | AUC0-∞ (ng · h/mL) PO [5, 11]: 733 ng·h/mL | Cmax(ng/mL) PO [5, 11]: 75.9 ng/mL | Tmax (h) PO [5, 11]: 3.67 h | t1/2 (h) PO [5, 11]: 4.05 h | Kd [6]: 5.4 nM | Kd [7]: 0.73 nM | IC50 [8]: 13 nM
